Results on twelve compounds are retold here after PubChem BioAssay (NCI).

Some test systems named below: HS 578T breast; OVCAR-5 ovarian; T-47D breast; SF-539 CNS; M14 melanoma; EKVX NSCLC; SF-268 CNS; NCI-H460 lung; UO-31 renal; SK-OV-3 ovarian; 786-0 renal.
Common to all, as to experiment: NCI-60 cell line screen, 48 h

Structures are written as SMILES. Values joined by “and” are separate entries in the source; they are usually repeats but may differ in a detail not shown here. Equal values may be shown once.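 Interpolation was linear, between the two tested concentrations surrounding the appropriate level; five concentrations were tested over 48 hours in 96-well plates. GI50 is the concentration that inhibits growth by half. TGI denotes the concentration required for complete inhibition of growth.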

Consider `CCCCCCCCCCCCC1N=C(N)NC2(CCCO2)C1C(=O)OC` (configuration not stated), for which the TGI was 8.89 µM in the test with HS 578T breast; 22.1 µM with OVCAR-5 ovarian; 27.7 µM in the test with T-47D breast; 15.8 µM with SF-539 CNS; 16.6 µM in the test with M14 melanoma; 36.6 µM in the test on EKVX NSCLC. In addition, the TGI amounted to 14.8 µM in the test with SF-268 CNS; 8.23 µM in the test on NCI-H460 lung; 32.2 µM in the test with UO-31 renal; 23.8 µM in the test with SK-OV-3 ovarian; 16.9 µM with 786-0 renal.
With `CC(C)[C@@H]1NC(=O)[C@@H]2N=C(O[C@H]2C)[C@H](C(C)C)NC(=O)C2N=C1O[C@H]2C`, the TGI in the test on HS 578T breast, with OVCAR-5 ovarian, in the test with T-47D breast, in the test with SF-539 CNS, with M14 melanoma and with EKVX NSCLC was greater than 100 µM each time. Further, the TGI with SF-268 CNS, in the test on NCI-H460 lung, in the test on UO-31 renal and in the test on 786-0 renal was greater than 100 µM each time.
Take `Clc1cc2ncn(C3CCCCO3)c2cc1Cl` (configuration not stated): the TGI was 85.4 µM with HS 578T breast; greater than 100 µM in the test with OVCAR-5 ovarian; greater than 100 µM in the test with T-47D breast; greater than 100 µM in the test with SF-539 CNS; greater than 100 µM in the test on M14 melanoma; 92.4 µM in the test with EKVX NSCLC. The TGI in the test on SF-268 CNS was greater than 100 µM; in the test on UO-31 renal, 49.8 µM; with SK-OV-3 ovarian, greater than 100 µM; in the test with 786-0 renal, greater than 100 µM.
In the case of `O=C1/C(=C/c2ccc(Cl)cc2)Oc2ccccc21`, the TGI was 74.7 µM with HS 578T breast; 90.3 µM in the test with T-47D breast; 48.8 µM in the test on SF-539 CNS; greater than 100 µM with M14 melanoma; 46.1 µM with EKVX NSCLC; greater than 100 µM in the test with SF-268 CNS. Besides, the TGI with NCI-H460 lung is greater than 100 µM; in the test with UO-31 renal, 30.4 µM; in the test with SK-OV-3 ovarian, greater than 100 µM; in the test with 786-0 renal it was 29.7 µM.
`CCCCCCCc1ccc(-c2nnc(N=Nc3ccc(OCCCCC)cc3)s2)s1`: the TGI in the test with HS 578T breast, in the test on OVCAR-5 ovarian, in the test with T-47D breast, in the test on SF-539 CNS, with M14 melanoma and with EKVX NSCLC was greater than 100 µM each time. The TGI with SF-268 CNS, in the test with NCI-H460 lung, with UO-31 renal, with SK-OV-3 ovarian and with 786-0 renal was greater than 100 µM in each case.
In the case of `CC(=O)C(C(C)=O)[C@H]1OC(C)(C)O[C@H]1[C@H]1COC(C)(C)O1`, the TGI in the test on HS 578T breast is greater than 100 µM; in the test on OVCAR-5 ovarian it was greater than 100 µM; in the test on T-47D breast, greater than 100 µM; in the test with SF-539 CNS it was 41.5 µM; in the test with M14 melanoma it was greater than 100 µM; in the test on EKVX NSCLC, greater than 100 µM. The TGI with SF-268 CNS, in the test with NCI-H460 lung, in the test on UO-31 renal, with SK-OV-3 ovarian and with 786-0 renal was greater than 100 µM each time.
For the compound `CC[C@@]1(O)C(=O)OCc2c1cc1n(c2=O)Cc2c-1nc1ccccc1c2C=Nc1ccccc1N[C@@H]1c2cc3c(cc2[C@@H](c2cc(OC)c(O)c(OC)c2)[C@H]2C(=O)OC[C@@H]21)OCO3`, the GI50 is 4.87 µM and 0.875 µM in the test with HS 578T breast; 0.847 µM and 0.281 µM in the test on OVCAR-5 ovarian; 0.00836 µM with T-47D breast; 0.0228 µM and < 0.005 µM in the test on SF-539 CNS; 0.0322 µM in the test on M14 melanoma; 3.77 µM and 0.791 µM with EKVX NSCLC. The GI50 was 0.129 µM and 0.0745 µM with UO-31 renal; 1.23 µM and 0.213 µM in the test with SK-OV-3 ovarian. Besides, the TGI in the test on HS 578T breast was greater than 100 µM; with T-47D breast, 0.163 µM; in the test with SF-539 CNS it was 0.239 µM; in the test with M14 melanoma, 6.02 µM and 1.03 µM; with EKVX NSCLC, greater than 44.5 µM; in the test with SF-268 CNS, greater than 82.3 µM. For the same compound, the TGI was 3.12 µM and 0.593 µM in the test on UO-31 renal; 15.2 µM with SK-OV-3 ovarian; 0.339 µM in the test with 786-0 renal.
With `CCC(=C/[C@H](C)C/C=C/C(C)=C/[C@@H](C)C(=O)[C@@H](C)[C@H](O)[C@@H](C)CC)/C=C/[C@H]1CC=CC(=O)O1`, the TGI was 7.02 µM and 2.38 µM in the test on HS 578T breast; 1.91 µM and 11 µM in the test with OVCAR-5 ovarian; 1.88 µM with T-47D breast; 0.174 µM and 1.35 µM in the test on SF-539 CNS; 0.159 µM with M14 melanoma; 12 µM and 14.3 µM with EKVX NSCLC. The TGI in the test with SF-268 CNS was 2.79 µM and 12.2 µM; with NCI-H460 lung, 1.26 µM and 1.64 µM; in the test with SK-OV-3 ovarian, 3.28 µM and 18.6 µM; in the test with 786-0 renal, 1.26 µM and 10.8 µM.
In the case of `COC(=O)c1ccccc1C1CN=NC12Cc1c(C)ccc(C)c1C2=O` (configuration not stated), the TGI in the test on HS 578T breast, in the test on OVCAR-5 ovarian, with T-47D breast, in the test on SF-539 CNS, in the test with M14 melanoma and with EKVX NSCLC was greater than 100 µM in each case. Besides, the TGI in the test with SF-268 CNS, in the test on NCI-H460 lung, in the test on UO-31 renal, in the test on SK-OV-3 ovarian and in the test on 786-0 renal was greater than 100 µM each time.
Regarding `Clc1ccc(C2=NCON=C2c2ccc(Cl)cc2)cc1`, the TGI was 36.2 µM with HS 578T breast; 90.7 µM in the test on OVCAR-5 ovarian; 22.8 µM with T-47D breast; 35.5 µM with SF-539 CNS; 45.3 µM with EKVX NSCLC; 57.7 µM in the test with SF-268 CNS. Further, the TGI in the test with NCI-H460 lung amounted to 40.6 µM; with UO-31 renal, 40.7 µM; in the test on SK-OV-3 ovarian, 47.1 µM; in the test on 786-0 renal it was 42.7 µM.
For `CCCCCCCCCCCCC1N=C(N)N2CCCC2=C1C(=O)OC` (configuration not stated), the TGI came out at 4.17 µM in the test with HS 578T breast; 13 µM with OVCAR-5 ovarian; 3.73 µM in the test with T-47D breast; 13.2 µM in the test on SF-539 CNS; 3.16 µM in the test on M14 melanoma; 35.4 µM in the test on EKVX NSCLC. The TGI in the test with SF-268 CNS was 14.8 µM; in the test on NCI-H460 lung it was 3.23 µM; in the test with UO-31 renal it was 24.4 µM; in the test on SK-OV-3 ovarian, 23.8 µM; in the test with 786-0 renal it was 3.04 µM.
On to `CN(/N=C\c1ccc2ccccc2c1)C1=NCCCN1`, for which the TGI is 42.1 µM in the test on HS 578T breast; greater than 100 µM in the test on OVCAR-5 ovarian; greater than 100 µM with T-47D breast; 40.3 µM in the test on SF-539 CNS; 53.8 µM with EKVX NSCLC; 60.2 µM in the test with SF-268 CNS. Also, the TGI is 20.3 µM in the test on NCI-H460 lung, 25.2 µM in the test with UO-31 renal, 98.3 µM in the test on SK-OV-3 ovarian and 29.1 µM with 786-0 renal.
